Consider two molecules from patent publication US11479536B1 (King Abdulaziz University, priority 2022, dated 2022).

The structures appear in SMILES notation. ≈ marks a conversion by molar mass, not a printed value.

The subject of data set [1] is T47D spheroids. The data set can be described thus: Mitochondrial membrane potential assay (JC-1), T47D spheroids. The format is cell-based, human. The note with it: 48 h post treatment at IC50, control 15.67±2.05%. On the procedure: The mitochondrial membrane potential was investigated in response to the treatment with MAK compounds. This assay depends on the measurement of the aggregate fluorescence for Tetraethylbenzimidazolylcarbocyanine iodide (JC-1). This cationic dye accumulates in the energized mitochondria, and the increase in aggregate fluorescence indicates mitochondrial […] while the reduction indicates the depolarization state.
After growing the cells and treating them with MAK compound for 48 hours, 2 μM of JC-1 final concentration was added and the mixture was incubated for 1 hour at 37° C. in presence of 5% CO2. Then, the samples were analyzed using flow cytometry. Mean values and standard deviation of replicates were calculated in comparison to the control group.

A short description of data set [2]: Maximum kinetic aqueous solubility. The note with it: phosphate buffer with 2% DMSO, kinetic from dmso stock, 2% DMSO/PBS, pH 7.4, read-out: maximum kinetic aqueous solubility (saturation). Type of data set: physicochemical. How it is done: Solubility assays were performed using Millipore MultiScreen® HTS-PFC Filter Plates designed for solubility assays (EMD Millipore, Billerica, Mass.). Assays were run in triplicate. The 96-well plates consist of two chambers separated by a filter. Liquid handling was performed using JANUS® Verispan and MTD workstations (Perkin Elmer, Waltham, Mass.). 4 μL of MAK-1 or MAK-6 solution (10 mM in DMSO) was added to 196 μL of phosphate buffer (45 mM potassium phosphate, 45 mM sodium acetate, 45 mM ethanolamine, pH=7.4) in the top chamber to give a final DMSO concentration of 2% and a theoretical drug concentration of 200 μM. Plates were gently shaken for 90 min and then subjected to vacuum. Insoluble drug is captured on the filter. 160 μL of the filtrate is transferred to 96-well Griener UV Star® analysis plates (Sigma-Aldrich, St. Louis, Mo.) containing 40 μL of acetonitrile. The test compound concentration in the filtrate is measured by UV absorbance on a Spectromax® Plus microplate reader (Molecular Devices, Sunnyvale, Calif.) using Softmax Pro software v.5.4.5. Absorbances at 5 wavelengths (280, 300, 320, 340, and 360 nm) were summed to generate the UV signal. Standard curves were generated by adding 4 μL of five concentrations of test compound in DMSO to 40 μL of acetonitrile in UV Star plates followed by 156 μL of the appropriate solubility medium. […]

Another data set addresses T1, AMPK (A1/B1/G2) (Homo sapiens, UniProt Q13131+Q9UGJ0+Q9Y478).
T1 construct: This system includes a recombinant full-length human AMPK enzyme; purchased Promega
In words: Cell-free AMPK inhibition assay, AMPK (A1/B1/G2) Kinase Enzyme system. The note with it: recombinant full-length human AMPK. The format is biochemical. On the procedure:
The inhibitory effect of serial concentrations of MAK compounds on AMPK Kinase activity was investigated using the highly sensitive AMPK (A1/B1/G2) Kinase Enzyme assay system (Promega, Madison Wis. USA). This system includes a recombinant full-length human AMPK enzyme and a substrate for the enzyme. The experiment was conducted according to the manufacturer's instructions in the provided protocol. Mean values of replicates were calculated in comparison to the control group.

The subject of data set [3] is T47D spheroids. The data set can be described thus: Live and dead assay of tumor spheroids, T47D. Type of data set: cell-based, human. The conditions noted are these: 48 h post treatment, control 2.60±0.31%. On the procedure:
The Live/Dead assay contains a mixture of two staining fluorescent dyes that label live and dead cells to enable differentiation between them. The cell viability of the cells in response to the treatment with MAK compounds was examined. The cells were grown for 48 hours and treated with MAK compound for additional 48 hours, then Cytox RED solution reagent was added. After incubation at 37° C. under 5% CO2 for 1 hour, the samples were immediately analyzed by flow cytometry. Mean values and standard deviation of replicates were calculated in comparison to the control group.

The test system of data set [4] is T47D spheroids. The data set can be described thus: Cytotoxicity assay (MTT) in spheroid culture, T47D. The format is cell-based, human. The note with it: for IC50: Homo sapiens, T47D, 3D spheroid model, 48 h, MTT; for reduction of spheroid size: T47D spheroids treated at IC50 for 48 h, vs control. On the procedure:
1×10^4 cells of each cell line (MCF7 and T47D) were seeded into ultra-low attachment 96 well plate at 37° C. and grown for 48 hours in DMEM media to result in the formation of spheroids. Then, the cells were subjected to the different treatment conditions before performing the assays.
The cytotoxic effects of MAK compounds were assessed against MCF7 and T47D cell lines using MTT cell viability assay. The cells were treated for 48 hours with different concentrations of each MAK compound and the control cells were subjected to the vehicle (0.1% DMSO). Then, 10% of 5 mg/mL MTT was added to each well containing treated or control cells, and mixture was incubated at 37° C. for 3 hours. After that, the MTT-containing media was replaced with 100 μL DMSO and incubated for 10 minutes at room temperature before measuring the absorbance for each well at 570 nm. According to the measured absorbance, the IC50 was calculated for each compound. All the experiments were performed in biological and experimental replicates.

In data set [5] the test system is T47D spheroids. In words: Reactive oxygen species (CellROX) assay, T47D spheroids. Type of data set: cell-based, human. The conditions noted are these: 48 h treatment, CellROX Green. How it is done: The CELLROX (Invitrogen) assay was used to measure the level of reactive oxygen species (ROS) in live cells. […] The technique was used to investigate the capability of tested compounds to induce intracellular ROS. After forming the spheroids for 48 hours and treating them for additional 48 hours with MAK compound, spheroids were incubated in culture medium with 500 nM CellROX for 60 minutes at 37° C. in presence of 5% CO2, and the samples were immediately analyzed on flow cytometry using 488-nm excitation for the CellROX® Green.

Data set [6] is described as follows: Binding to mouse plasma proteins (equilibrium dialysis). Type of data set: in vitro ADME. The conditions noted are these: CD-1, pH 7.4, 37° C., read-out: free, unbound fraction in mouse plasma. How it is done: The equilibrium dialysis method for determining plasma protein binding was performed as previously described using 96-well dialyzer plates with molecular weight cutoff of 5K (Harvard Apparatus, Holliston, Mass.) and a dual-plate rotator set to maximum speed (Harvard Apparatus, Holliston, Mass.) located in a 37° C. incubator with a 10% CO2-atmospheric environment. Assays were run in triplicate. The test compounds were added to CD-1 mouse plasma (Innovative Research, Novi, Mich., sodium heparin added as anticoagulant; pH adjusted to 7.4 with 2N HCl on day of use) in DMSO (final DMSO concentration 0.4%) to give 10 μM final concentration. Drug/plasma mixture and buffer (Dulbecco's phosphate-buffered saline 1× without calcium and magnesium, Mediatech, Inc., Herndon, Va.) were placed in their respective sides, wells were capped, and the plate was placed in the rotator and allowed to dialyze for 22 h. Following dialysis, aliquots of buffer and plasma mixture were removed and mixed with aliquots of the opposite matrix in 96-well deep plates. Concentrations of analytes from each side of the dialysis plate were determined by LC/MS/MS on a Waters Xevo TQ instrument as described above using positive electrospray ionization. […] The fraction unbound was calculated by dividing the drug concentration in the buffer side of the dialysis plate by the drug concentration in the plasma side.
(In general: In equilibrium dialysis only unbound substance equilibrates across the membrane.)

T1 sequence (Q13131 whole entry): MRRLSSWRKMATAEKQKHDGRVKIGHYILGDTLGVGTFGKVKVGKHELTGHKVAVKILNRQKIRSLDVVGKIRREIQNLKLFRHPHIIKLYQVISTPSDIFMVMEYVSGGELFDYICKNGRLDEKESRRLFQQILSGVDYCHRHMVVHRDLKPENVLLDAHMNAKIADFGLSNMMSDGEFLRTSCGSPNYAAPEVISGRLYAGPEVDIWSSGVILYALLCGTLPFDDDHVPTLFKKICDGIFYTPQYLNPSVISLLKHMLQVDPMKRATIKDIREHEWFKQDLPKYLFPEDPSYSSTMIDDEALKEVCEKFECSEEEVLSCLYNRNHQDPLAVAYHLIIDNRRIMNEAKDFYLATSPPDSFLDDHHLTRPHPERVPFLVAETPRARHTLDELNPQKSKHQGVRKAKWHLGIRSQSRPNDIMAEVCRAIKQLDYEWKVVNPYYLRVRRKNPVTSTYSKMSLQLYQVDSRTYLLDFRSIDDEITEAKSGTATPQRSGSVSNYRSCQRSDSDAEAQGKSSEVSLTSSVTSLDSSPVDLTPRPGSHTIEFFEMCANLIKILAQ
T1 sequence (Q9Y478 whole entry partner): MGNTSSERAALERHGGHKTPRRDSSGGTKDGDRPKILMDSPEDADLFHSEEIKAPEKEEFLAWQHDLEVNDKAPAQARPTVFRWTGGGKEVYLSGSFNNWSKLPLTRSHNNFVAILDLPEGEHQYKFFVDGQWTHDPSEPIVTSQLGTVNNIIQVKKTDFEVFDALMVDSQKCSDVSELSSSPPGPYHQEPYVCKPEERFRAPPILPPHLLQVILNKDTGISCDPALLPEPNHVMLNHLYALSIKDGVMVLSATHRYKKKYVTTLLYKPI
T1 sequence (Q9UGJ0 whole entry partner): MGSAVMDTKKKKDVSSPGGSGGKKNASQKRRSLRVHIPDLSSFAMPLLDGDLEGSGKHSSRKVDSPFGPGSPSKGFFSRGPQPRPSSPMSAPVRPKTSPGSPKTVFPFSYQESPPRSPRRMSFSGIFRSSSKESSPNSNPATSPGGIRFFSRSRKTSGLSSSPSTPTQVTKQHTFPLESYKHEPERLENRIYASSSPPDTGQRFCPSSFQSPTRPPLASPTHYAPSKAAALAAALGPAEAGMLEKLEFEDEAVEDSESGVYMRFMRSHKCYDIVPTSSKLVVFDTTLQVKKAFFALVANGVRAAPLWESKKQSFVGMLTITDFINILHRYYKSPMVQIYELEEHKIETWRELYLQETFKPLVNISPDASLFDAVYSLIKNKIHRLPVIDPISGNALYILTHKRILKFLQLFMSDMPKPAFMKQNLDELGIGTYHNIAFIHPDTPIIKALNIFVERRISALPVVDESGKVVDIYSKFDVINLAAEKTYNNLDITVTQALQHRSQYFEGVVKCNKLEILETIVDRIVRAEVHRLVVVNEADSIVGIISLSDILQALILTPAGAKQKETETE

In the case of `COc1cccc(C(=O)Nc2ccc(CC(=O)NCc3ccccc3)cc2)c1` [MAK-1, N-(4-(2-(benzylamino)-2-oxoethyl)phenyl)-3-methoxybenzamide], the “depolarized cells (mitochondrial membrane), mean±SEM” value in the data set on T47D spheroids [1] was determined as 36.77±1.17%. In addition, the solubility kinetic at 90 min in data set [2] was determined as 9.4 µM (≈ 3.52 µg/mL). Also, the IC50 was found to be 0.0048 µM on AMPK (A1/B1/G2) and 13.9 ± 0.095 µM in the data set on T47D spheroids [4]. Moreover, the “dead rate (dead cells), mean±SEM” value in the data set with T47D spheroids [3] is 42.43±0.49%. Moreover, the “reduction of spheroid size” value with T47D spheroids [4] is recorded as “noticeable reduction”. For the same molecule, the “ROS level, treatment vs control” value with T47D spheroids [5] was 4%. For the same molecule, in data set [6], the unbound share (fraction unbound) at 22 h, 10 μM came out at 0.083.

Turning to `O=C(Cc1ccc(NC(=O)c2cccc(Cl)c2)cn1)NCc1ccccc1` [MAK-6, N-(6-(2-(benzylamino)-2-oxoethyl)pyridin-3-yl)-3-chlorobenzamide], the “depolarized cells (mitochondrial membrane), mean±SEM” value in the data set on T47D spheroids [1] is recorded as 32.77±0.54%. Also, in data set [2], the solubility kinetic at 90 min came to 3.7 µM (≈ 1.41 µg/mL). The IC50 on AMPK (A1/B1/G2) came out at 0.0056 µM. Further, the “dead rate (dead cells), mean±SEM” value in the data set with T47D spheroids [3] was determined as 37.97±0.27%. Moreover, in the data set on T47D spheroids [4], the midpoint of inhibition, the IC50, lay at 7.29 ± 0.085 µM and the “reduction of spheroid size” value was “noticeable reduction”. Moreover, in the data set on T47D spheroids [5], the “ROS level, treatment vs control” value was found to be 6%. Also, the fraction unbound at 22 h, 10 μM in data set [6] worked out at 0.087.

The IC50 is the concentration needed to halve the response being measured. For orientation: fraction unbound means the share of the substance not bound to proteins or other matrix.
